Reference: patent publication US20100298141A1, “SUBSTITUTED PYRIDINE N-OXIDE HERBICIDES” (E. I. DU PONT DE NEMOURS AND COMPANY, priority 2007, published 2010)

What was measured:
[1] = tested on: barnyardgrass; assay: Test E flooded paddy test; format: in vivo, Echinochloa crus-galli; conditions: Flood, after 21 days, scale 0 to 100
Source text: (§1) Three plastic pots (ca. 16-cm diameter) per rate were partially filled with sterilized Tama silt loam soil comprising a 35:50:15 ratio of sand, silt and clay and 2.6% organic matter. Separate plantings for each of the three pots were as follows. Seeds from the U.S. of ducksalad (Heteranthera limosa), smallflower umbrella sedge (Cyperus difformis) and purple […] coccinea), were planted into one 16-cm pot for each rate. […] Seeds from the U.S. of barnyardgrass (Echinochloa crus-galli), late watergrass (Echinochloa oryzicola), early watergrass (Echinochloa oryzoides) and junglerice (Echinochloa colona) were planted into one 16-cm pot for each rate. Plantings were sequential so that crop and weed species were at the 2.0 to 2.5-leaf stage at time of treatment. Potted plants were grown in a greenhouse with day/night temperature settings of 30/27° C., and supplemental balanced lighting was provided to maintain a 16-hour photoperiod. Test pots were maintained in the greenhouse until test completion. At time of treatment, test pots were flooded to 3 cm above the soil surface, treated by application of test compounds directly to the paddy water, and then maintained at that water depth for the duration of the test. Effects of treatments on rice and weeds were visually evaluated by comparison to untreated controls after 21 days. […] A dash (-) response means no test result.

[2] = tested on: late watergrass; assay: Test E flooded paddy test; format: in vivo, Echinochloa oryzicola; conditions: Flood, after 21 days, scale 0 to 100
Source text: as §1

[3] = tested on: purple redstem; assay: Test E flooded paddy test; format: in vivo, Ammannia coccinea; conditions: Flood, after 21 days, scale 0 to 100
Source text: as §1

[4] = tested on: transplanted rice seedlings; assay: Test E flooded paddy test; format: in vivo, Oryza sativa cv. ‘Japonica-M202’; conditions: Flood, after 21 days, scale 0 to 100
Source text: as §1

[5] = tested on: junglerice; assay: Test E flooded paddy test; format: in vivo, Echinochloa colona; conditions: Flood, after 21 days, scale 0 to 100
Source text: as §1

[6] = tested on: early watergrass; assay: Test E flooded paddy test; format: in vivo, Echinochloa oryzoides; conditions: Flood, after 21 days, scale 0 to 100
Source text: as §1

[7] = tested on: smallflower umbrella sedge; assay: Test E flooded paddy test; format: in vivo, Cyperus difformis; conditions: Flood, after 21 days, scale 0 to 100
Source text: as §1

[8] = tested on: rice flatsedge; assay: Test E flooded paddy test; format: in vivo, Cyperus iria; conditions: Flood, after 21 days, scale 0 to 100
Source text: as §1

[9] = tested on: ducksalad; assay: Test E flooded paddy test; format: in vivo, Heteranthera limosa; conditions: Flood, after 21 days, scale 0 to 100
Source text: as §1

[10] = tested on: Italian ryegrass (LOLMU); assay: Test H preemergence mixtures of compound 2 with crop safeners; format: in vivo, Lolium multiflorum; parameters: key to LOLMU Obsd. (observed effect): observed % effect, visually evaluated vs controls
Source text: Seeds of test plants consisting of winter wheat (TRZAW, Triticum aestivum), corn (ZEAMD, Zea mays cv. ‘Pioneer 33G26’), giant foxtail (SETFA, Setaria faberi), and Italian ryegrass (LOLMU, Lolium multiflorum) were planted into a blend of loam soil and sand and treated preemergence with a directed soil spray using test chemicals formulated in a non-phytotoxic solvent mixture that included a surfactant. Seeds of small-seeded species were planted about 1 cm deep; larger seeds were planted about 2.5 cm deep. […] Balanced fertilizer was applied through the watering system. Treatments consisted of Compound 2 and the above mentioned safeners alone and in combination using a spray volume of 457 L/ha. Each treatment was replicated four times. Treated plants and controls were maintained in a greenhouse for 14 to 21 days, after which time all species were compared to controls and visually evaluated. […] A dash (-) response means no test result. Colby's Equation was used to determine the herbicidal effects expected from the mixtures. Colby's Equation (Colby, S. […] wherein • Pa+b is the percentage effect of the mixture expected from additive contribution of the individual components, • Pa is the observed percentage effect of the first active ingredient at the same use rate as in the mixture, and • Pb is the observed percentage effect of the second active ingredient at the same use rate as in the mixture.

[11] = tested on: wild oat (AVEFA); assay: Test I preemergence mixtures of compound 2 with crop safeners; format: in vivo, Avena fatua; conditions: alone
Source text: Seeds of test plants consisting of winter wheat (TRZAW, Triticum aestivum), corn (ZEAMD, Zea mays cv. ‘Pioneer 33G26’), wild oat (AVEFA, Avena fatua), and Italian ryegrass (LOLMU, Lolium multiflorum) were planted into a blend of loam soil and sand and treated preemergence with a directed soil spray using test chemicals formulated in a non-phytotoxic solvent mixture that included a surfactant. Seeds of small-seeded species were planted about 1 cm deep; larger seeds were planted about 2.5 cm deep. […] Balanced fertilizer was applied through the watering system. Treatments consisted of Compound 2 and the above mentioned safeners alone and in combination using a spray volume of 457 L/ha. Each treatment was replicated four times. Treated plants and controls were maintained in a greenhouse for 14 to 21 days, after which time all species were compared to controls and visually evaluated. […] A dash (-) response means no test result. Colby's Equation was used to determine the herbicidal effects expected from the mixtures. Colby's Equation (Colby, S. […] Pa+b=Pa+Pb−(PaPb/100) wherein • Pa+b is the percentage effect of the mixture expected from additive contribution of the individual components, • Pa is the observed percentage effect of the first active ingredient at the same use rate as in the mixture, and • Pb is the observed percentage effect of the second active ingredient at the same use rate as in the mixture.

Cn1nc(C(F)(F)F)c(C[S+]([O-])c2cc(Br)cc[n+]2[O-])c1Cl (racemic) [Compound 35]
Plant response rating, Barnyardgrass ([1]; 16 g ai/ha): 0 | Plant response rating, Barnyardgrass ([1]; 32 g ai/ha): 0 | Plant response rating, Barnyardgrass ([1]; 64 g ai/ha): 0 | Plant response rating, Barnyardgrass ([1]; 125 g ai/ha): 0 | Plant response rating, Barnyardgrass ([1]; 250 g ai/ha): 50 | Plant response rating, Watergrass, Late ([2]; 16 g ai/ha): 0 | Plant response rating, Watergrass, Late ([2]; 32 g ai/ha): 0 | Plant response rating, Watergrass, Late ([2]; 64 g ai/ha): 0 | Plant response rating, Watergrass, Late ([2]; 125 g ai/ha): 30 | Plant response rating, Watergrass, Late ([2]; 250 g ai/ha): 60 | Plant response rating, Redstem ([3]; 16 g ai/ha): 0 | Plant response rating, Redstem ([3]; 32 g ai/ha): 45 | Plant response rating, Redstem ([3]; 64 g ai/ha): 85 | Plant response rating, Redstem ([3]; 125 g ai/ha): 85 | Plant response rating, Redstem ([3]; 250 g ai/ha): 100 | Plant response rating, Rice, Transplanted ([4]; 16 g ai/ha): 0 | Plant response rating, Rice, Transplanted ([4]; 32 g ai/ha): 0 | Plant response rating, Rice, Transplanted ([4]; 64 g ai/ha): 0 | Plant response rating, Rice, Transplanted ([4]; 125 g ai/ha): 15 | Plant response rating, Rice, Transplanted ([4]; 250 g ai/ha): 15 | Plant response rating, Junglerice ([5]; 16 g ai/ha): 0 | Plant response rating, Junglerice ([5]; 32 g ai/ha): 0 | Plant response rating, Junglerice ([5]; 64 g ai/ha): 0 | Plant response rating, Junglerice ([5]; 125 g ai/ha): 0 | Plant response rating, Junglerice ([5]; 250 g ai/ha): 40 | Plant response rating, Watergrass, Early ([6]; 16 g ai/ha): 0 | Plant response rating, Watergrass, Early ([6]; 32 g ai/ha): 0 | Plant response rating, Watergrass, Early ([6]; 64 g ai/ha): 0 | Plant response rating, Watergrass, Early ([6]; 125 g ai/ha): 20 | Plant response rating, Watergrass, Early ([6]; 250 g ai/ha): 40 | Plant response rating, Sedge, Umbrella ([7]; 16 g ai/ha): 0 | Plant response rating, Sedge, Umbrella ([7]; 32 g ai/ha): 45 | Plant response rating, Sedge, Umbrella ([7]; 64 g ai/ha): 85 | Plant response rating, Sedge, Umbrella ([7]; 125 g ai/ha): 85 | Plant response rating, Sedge, Umbrella ([7]; 250 g ai/ha): 100 | Plant response rating, Flatsedge, Rice ([8]; 16 g ai/ha): 0 | Plant response rating, Flatsedge, Rice ([8]; 32 g ai/ha): 30 | Plant response rating, Flatsedge, Rice ([8]; 64 g ai/ha): 70 | Plant response rating, Flatsedge, Rice ([8]; 125 g ai/ha): 80 | Plant response rating, Flatsedge, Rice ([8]; 250 g ai/ha): 95 | Plant response rating, Ducksalad ([9]; 16 g ai/ha): 0 | Plant response rating, Ducksalad ([9]; 32 g ai/ha): 40 | Plant response rating, Ducksalad ([9]; 64 g ai/ha): 50 | Plant response rating, Ducksalad ([9]; 125 g ai/ha): 60 | Plant response rating, Ducksalad ([9]; 250 g ai/ha): 100

Cc1cc[n+]([O-])c(S(=O)(=O)Cc2c(C(F)(F)F)nn(C)c2OC(F)F)c1 [Compound 2]
Plant response rating LOLMU Obsd. ([10]; Cmpd 2 alone 125 g a.i./ha, scale 0 to 100, mean of four replicates): 53 | LOLMU Obsd. (observed effect) ([10]; Test H, alone, 125 g a.i./ha): 53 | AVEFA Obsd. (observed effect) ([11]; 125 g a.i./ha): 93 | AVEFA Obsd. (observed effect) ([11]; 250 g a.i./ha): 96

C#CCOc1c(C[S+]([O-])c2cccc[n+]2[O-])c(C(F)(F)F)nn1C (centres unmarked) [Compound 76]
Plant response rating, Barnyardgrass ([1]; 64 g ai/ha): 0 | Plant response rating, Barnyardgrass ([1]; 125 g ai/ha): 60 | Plant response rating, Barnyardgrass ([1]; 250 g ai/ha): 85 | Plant response rating, Barnyardgrass ([1]; 500 g ai/ha): 95 | Plant response rating, Barnyardgrass ([1]; 1000 g ai/ha): 95 | Plant response rating, Watergrass, Late ([2]; 64 g ai/ha): 0 | Plant response rating, Watergrass, Late ([2]; 125 g ai/ha): 40 | Plant response rating, Watergrass, Late ([2]; 250 g ai/ha): 75 | Plant response rating, Watergrass, Late ([2]; 500 g ai/ha): 95 | Plant response rating, Watergrass, Late ([2]; 1000 g ai/ha): 95 | Plant response rating, Redstem ([3]; 64 g ai/ha): 0 | Plant response rating, Redstem ([3]; 125 g ai/ha): 40 | Plant response rating, Redstem ([3]; 250 g ai/ha): 95 | Plant response rating, Redstem ([3]; 500 g ai/ha): 100 | Plant response rating, Redstem ([3]; 1000 g ai/ha): 100 | Plant response rating, Rice, Transplanted ([4]; 64 g ai/ha): 10 | Plant response rating, Rice, Transplanted ([4]; 125 g ai/ha): 10 | Plant response rating, Rice, Transplanted ([4]; 1000 g ai/ha): 40 | Plant response rating, Junglerice ([5]; 64 g ai/ha): 0 | Plant response rating, Junglerice ([5]; 125 g ai/ha): 60 | Plant response rating, Junglerice ([5]; 250 g ai/ha): 75 | Plant response rating, Junglerice ([5]; 500 g ai/ha): 100 | Plant response rating, Junglerice ([5]; 1000 g ai/ha): 100 | Plant response rating, Watergrass, Early ([6]; 64 g ai/ha): 0 | Plant response rating, Watergrass, Early ([6]; 125 g ai/ha): 50 | Plant response rating, Watergrass, Early ([6]; 250 g ai/ha): 75 | Plant response rating, Watergrass, Early ([6]; 500 g ai/ha): 100 | Plant response rating, Watergrass, Early ([6]; 1000 g ai/ha): 100 | Plant response rating, Sedge, Umbrella ([7]; 64 g ai/ha): 60 | Plant response rating, Sedge, Umbrella ([7]; 125 g ai/ha): 90 | Plant response rating, Sedge, Umbrella ([7]; 250 g ai/ha): 95 | Plant response rating, Sedge, Umbrella ([7]; 500 g ai/ha): 95 | Plant response rating, Sedge, Umbrella ([7]; 1000 g ai/ha): 95 | Plant response rating, Flatsedge, Rice ([8]; 64 g ai/ha): 85 | Plant response rating, Flatsedge, Rice ([8]; 125 g ai/ha): 95 | Plant response rating, Flatsedge, Rice ([8]; 250 g ai/ha): 95 | Plant response rating, Flatsedge, Rice ([8]; 500 g ai/ha): 100 | Plant response rating, Flatsedge, Rice ([8]; 1000 g ai/ha): 100 | Plant response rating, Ducksalad ([9]; 64 g ai/ha): 40 | Plant response rating, Ducksalad ([9]; 125 g ai/ha): 40 | Plant response rating, Ducksalad ([9]; 250 g ai/ha): 40 | Plant response rating, Ducksalad ([9]; 500 g ai/ha): 95 | Plant response rating, Ducksalad ([9]; 1000 g ai/ha): 95
